Experimental data as given in patent US20040266805A1, “Inflammation modulatory compound” (priority 2001, published 2004).
“And” between values parts separate entries of the source, which are not always exact repeats. Equal values may be shown once.

What was measured:
[1] = test system: Splenocytes and thymocytes; assay: Apoptosis by Annexin-V staining and flow cytometry; type: cell-based, rat; conditions: for Effect on apoptosis in cells following any of the culture periods: culture 6, 24, 48 or 72 h; for Effect on ConA-induced apoptosis in thymocytes: morphine 10^−8 to 10^−18 mol/l; for Effect on apoptosis in basal non-activated splenocytes and thymocytes: pre-incubation 1 h, basal apoptosis 4-8%
Procedure: Splenocytes and thymocytes obtained from adult male Wistar rats were cultured as previously described (10). Cells were incubated with EM-1, EM-2 or morphine at various concentrations for 1 h and were then activated with either Concanavalin A (ConA, 5 μg/ml, Sigma UK) or lipopolysaccharide (LPS, 25 μg/ml, Sigma, UK) and cultured for 6, 24, 48 or 72 h. After culture, cells were stained with Annexin-V-Fluos (Roche, Mannheim, Germany) and analysed by flow cytometry (Becton Dickinson, UK). Apoptosis in basal non-activated splenocytes and thymocytes was 4-8%, and pre-incubation with EM-1, EM-2 or morphine had no effect on this. ConA at 1 or 5 μg/ml induced 10-15 and 20-30% apoptosis respectively in rat splenocytes, values which were not altered by pre-incubation with EM-2 at concentrations of 10^−8 to 10^−18 mol/l. […] No effect of morphine, EM-1 or EM-2 was observed on apoptosis in cells following any of the culture periods.

[2] = test system: rat Fas in splenocytes and thymocytes; assay: Fas expression by antibody staining and flow cytometry; type: cell-based; conditions: basal or ConA activated splenocytes and thymocytes, cultured 6 h
Procedure: Splenocytes and thymocytes, whether basal or ConA activated, were cultured for 6h in the presence of EM-1, EM-2 or morphine (concentration ranges as above) and were then stained with an antibody specific for rat Fas (Transduction Laboratories, Lexington, Ky., USA) and analysed by flow cytometry.

[3] = test system: Adjuvant arthritis (AA) in adult male Wistar rats; assay: Intraplantar treatment with endomorphin 1 prior to onset of inflammation in adjuvant arthritis rats; type: in vivo, rat; conditions: for Mean Paw Volume: days 9-13, day 14, vehicle 2.924
Procedure: (§1) Adjuvant arthritis (AA) was induced in adult male Wistar rats by a single intradermal injection (0.1 ml) of a suspension of ground, heat-killed M. butyricum in paraffin oil (10 mg/ml) into the tail base (9). Rats were despatched 14 days following injection and spleens, thymuses and hind paws were collected on dry ice and stored at −80° C. Spleens, thymuses and synovial tissue from the paws were acid-extracted and the extracts were measured for the presence of EM-1 and EM-2 by RIAs (8). EM-1 contents in the spleen (p<0.05) and thymus (p<0.075) were elevated compared to tissues from non-AA controls (FIG. 4). […] Neither EM-1 or EM-2 were detectable in extracts of synovial tissues from control non-AA rats (FIG. 5).
(§2) Adjuvant arthritis (AA) was induced in adult male Wistar rats using the same protocol as described in Example 2 with saline vehicle or endomorphin 1 in saline being injected on days 9, 10, 11, 12 and 13 after adjuvant injection and prior to the onset of inflammation.

[4] = test system: arthritic male Wistar rats; assay: Intraperitoneal administration of EM-1 prior to onset of inflammation in arthritic rats; type: in vivo, rat; parameters: Mean Paw Volume: unit not given beside the values; conditions: for Mean Paw Volume: n=7
Procedure: as §2
The protocol of Example 3 above was followed using intraperitoneal injection of 0.1 and 1.0 μmol Endomorphin-1 or vehicle in arthritic male Wistar rats prior to the onset of inflammation.
EM-1 or vehicle was administered on days 9, 10, 11, 12 and 13.

[5] = test system: Adjuvant arthritis (AA) in adult male Lewis rats; assay: Intraperitoneal treatment of existing inflammation with endomorphin in adjuvant arthritis rats; type: in vivo, rat
Procedure: as §1
Adjuvant arthritis (AA) was induced in adult male Lewis rats as above. Saline vehicle or 1 μmol of endomorphin in saline was given as an intraperitoneal (ip) injection on days 11, 12 and 13 after adjuvant injection, and after the onset of inflammation, to assess the modulation effect of the endomorphin.

endomorphin-2 [EM-2]
Effect on ConA-induced apoptosis in rat splenocytes ([1]; ConA 1 or 5 μg/ml, pre-incubation at 10^−8 to 10^−18 mol/l): not altered | Effect on LPS-induced apoptosis ([1]; LPS 5 and 25 μg/ml, 10-12% apoptosis): did not alter | Effect on apoptosis in cells following any of the culture periods [1]: No effect | Effect on ConA-induced apoptosis in thymocytes [1]: Neither EM-1, EM-2 nor morphine (concentration range of morphine 10^−8 to 10^−18 mol/l) had any effect | Effect on apoptosis in basal non-activated splenocytes and thymocytes [1]: had no effect | Alteration in expression of Fas [2]: No alteration

CN1CC[C@]23c4c5ccc(O)c4O[C@H]2[C@@H](O)C=C[C@H]3[C@H]1C5 [morphine, reference compound]
Effect on apoptosis in cells following any of the culture periods [1]: No effect | Effect on ConA-induced apoptosis in thymocytes [1]: Neither EM-1, EM-2 nor morphine (concentration range of morphine 10^−8 to 10^−18 mol/l) had any effect | Effect on apoptosis in basal non-activated splenocytes and thymocytes [1]: had no effect | Alteration in expression of Fas [2]: No alteration

endomorphin-1 [EM-1]
Effect on apoptosis in cells following any of the culture periods [1]: No effect | Effect on ConA-induced apoptosis in thymocytes [1]: Neither EM-1, EM-2 nor morphine (concentration range of morphine 10^−8 to 10^−18 mol/l) had any effect | Effect on apoptosis in basal non-activated splenocytes and thymocytes [1]: had no effect | Mean Paw Volume ([3]; 10 pmol intraplantar, n=14): 2.779 mL | Mean Paw Volume ([3]; 100 pmol intraplantar, n=14): 2.381 mL | Mean Paw Volume ([3]; 1 nmol intraplantar, n=12): 2.638 mL | Mean Paw Volume ([3]; 10 nmol intraplantar, n=14): 2.260 mL | Mean Paw Volume ([3]; 100 fmol intraplantar, n=14): 2.450 mL | Reduction of inflammation (decrease in paw volume compared to the vehicle group) ([3]; intraplantar injection, 100 fmols): ≤ 16% | Alteration in expression of Fas [2]: No alteration | Mean Paw Volume ([4]; 0.1 μmol ip group, Day 0 (before treatment on days 9-13)): 1.613 | Mean Paw Volume ([4]; 0.1 μmol ip on days 9-13, Day 14, vehicle 2.927): 2.494 | Mean Paw Volume ([4]; 1.0 μmol ip group, Day 0 (before treatment on days 9-13)): 1.723 | Mean Paw Volume ([4]; 1.0 μmol ip on days 9-13, Day 14, vehicle 2.927): 2.349 | Reduction in inflammation ([4]; 1 μmol ip, prophylactically): 20% | Effect on existing inflammation ([5]; dose of 1 μmol ip): reduce existing inflammation | Paw Volume ([5]; individual rats, 1 μmol ip on days 11, 12 and 13 after adjuvant, after onset of inflammation, day 14, listed as Endomorphin (EM-1)): 3.15 ml and 3.04 ml and 2.57 ml (2×) and 2.41 ml and 2.81 ml and 2.35 ml and 2.61 ml | Paw Volume, mean ([5]; n=8, SEM=0.10, 1 μmol ip on days 11, 12 and 13, day 14, vehicle mean 2.96): 2.69 mL
